Results: PubChem BioAssay (NCI)
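GI50 is the concentration that inhibits growth by half. TGI is the concentration that stops growth completely.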

Assays:
Test in all cases: DTP human tumour cell line panel, 384-well format
NCI-H522 lung = system: NCI-H522 lung
OVCAR-5 ovarian = system: OVCAR-5 ovarian
SF-539 CNS = system: SF-539 CNS
TK-10 renal = system: TK-10 renal
NCI/ADR-RES ovarian = system: NCI/ADR-RES ovarian
MALME-3M melanoma = system: MALME-3M melanoma
HCT-116 colon = system: HCT-116 colon
SK-OV-3 ovarian = system: SK-OV-3 ovarian
MDA-MB-435 melanoma = system: MDA-MB-435 melanoma
COLO 205 colon = system: COLO 205 colon
MOLT-4 leukemia = system: MOLT-4 leukemia
SW-620 colon = system: SW-620 colon
UACC-62 melanoma = system: UACC-62 melanoma
KM12 colon = system: KM12 colon
U251 glioblastoma = system: U251 glioblastoma
RXF 393 renal = system: RXF 393 renal
HT29 colon = system: HT29 colon
MDA-MB-231 breast = system: MDA-MB-231 breast
LOX IMVI melanoma = system: LOX IMVI melanoma
SNB-19 CNS = system: SNB-19 CNS
M14 melanoma = system: M14 melanoma
UO-31 renal = system: UO-31 renal
A498 renal = system: A498 renal
786-0 renal = system: 786-0 renal
OVCAR-4 ovarian = system: OVCAR-4 ovarian
NCI-H460 NSCLC = system: NCI-H460 NSCLC
MDA-MB-468 breast = system: MDA-MB-468 breast
OVCAR-8 ovarian = system: OVCAR-8 ovarian
NCI-H23 lung = system: NCI-H23 lung
CAKI-1 renal = system: CAKI-1 renal
IGROV1 ovarian = system: IGROV1 ovarian
A549 NSCLC = system: A549 NSCLC
OVCAR-3 ovarian = system: OVCAR-3 ovarian
K-562 leukemia = system: K-562 leukemia
SR leukemia = system: SR leukemia
BT-549 breast = system: BT-549 breast
MCF7 breast = system: MCF7 breast
ACHN renal = system: ACHN renal
HL-60(TB) leukemia = system: HL-60(TB) leukemia
SK-MEL-28 melanoma = system: SK-MEL-28 melanoma
SF-295 CNS = system: SF-295 CNS
SK-MEL-5 melanoma = system: SK-MEL-5 melanoma
UACC-257 melanoma = system: UACC-257 melanoma
NCI-H226 lung = system: NCI-H226 lung
HCC-2998 colon = system: HCC-2998 colon
SK-MEL-2 melanoma = system: SK-MEL-2 melanoma
CCRF-CEM leukemia = system: CCRF-CEM leukemia
DU-145 prostate = system: DU-145 prostate
SN12C renal = system: SN12C renal
T-47D breast = system: T-47D breast
HOP-62 NSCLC = system: HOP-62 NSCLC
SF-268 CNS = system: SF-268 CNS
PC-3 prostate = system: PC-3 prostate
NCI-H322M lung = system: NCI-H322M lung
HOP-92 NSCLC = system: HOP-92 NSCLC
HCT-15 colon = system: HCT-15 colon
RPMI-8226 leukemia = system: RPMI-8226 leukemia

Cc1cc2c(C(=O)NC[C@H](C)c3ccccc3)c(O)c(O)cc2c(O)c1-c1c(C)cc2c(C(=O)NC[C@H](C)c3ccccc3)c(O)c(O)cc2c1O
GI50 (NCI-H522 lung): 207 nM
TGI (NCI-H522 lung): 396 nM
GI50 (OVCAR-5 ovarian): 558 nM
TGI (OVCAR-5 ovarian): 1980 nM
GI50 (SF-539 CNS): 233 nM
TGI (SF-539 CNS): 579 nM
GI50 (TK-10 renal): 1280 nM
TGI (TK-10 renal): 7.08 µM
GI50 (NCI/ADR-RES ovarian): 2150 nM
TGI (NCI/ADR-RES ovarian): 5.33 µM
GI50 (MALME-3M melanoma): 1590 nM
TGI (MALME-3M melanoma): 4.43 µM
GI50 (HCT-116 colon): 274 nM
TGI (HCT-116 colon): 685 nM
GI50 (SK-OV-3 ovarian): 1500 nM
TGI (SK-OV-3 ovarian): 3.9 µM
GI50 (MDA-MB-435 melanoma): 540 nM
TGI (MDA-MB-435 melanoma): 2700 nM
GI50 (COLO 205 colon): 1940 nM
TGI (COLO 205 colon): 4.29 µM
GI50 (MOLT-4 leukemia): 218 nM
TGI (MOLT-4 leukemia): 404 nM
GI50 (SW-620 colon): 1480 nM
TGI (SW-620 colon): 3.62 µM
GI50 (UACC-62 melanoma): 486 nM
TGI (UACC-62 melanoma): 1630 nM
GI50 (KM12 colon): 390 nM
TGI (KM12 colon): 1360 nM
GI50 (U251 glioblastoma): 281 nM
TGI (U251 glioblastoma): 723 nM
GI50 (RXF 393 renal): 201 nM
TGI (RXF 393 renal): 625 nM
GI50 (HT29 colon): 1230 nM
TGI (HT29 colon): 3.83 µM
GI50 (MDA-MB-231 breast): 654 nM
TGI (MDA-MB-231 breast): 2390 nM
GI50 (LOX IMVI melanoma): 1740 nM
TGI (LOX IMVI melanoma): 3.27 µM
GI50 (SNB-19 CNS): 413 nM
TGI (SNB-19 CNS): 1440 nM
GI50 (M14 melanoma): 394 nM
TGI (M14 melanoma): 1360 nM
GI50 (UO-31 renal): 1220 nM
TGI (UO-31 renal): 2940 nM
GI50 (A498 renal): 286 nM
TGI (A498 renal): 818 nM
GI50 ([…]-0 renal): 1170 nM
TGI (786-0 renal): 2800 nM
GI50 (OVCAR-4 ovarian): 935 nM
TGI (OVCAR-4 ovarian): 4.46 µM
GI50 (NCI-H460 NSCLC): 204 nM
TGI (NCI-H460 NSCLC): 424 nM
GI50 (MDA-MB-468 breast): 187 nM
TGI (MDA-MB-468 breast): 374 nM
GI50 (OVCAR-8 ovarian): 1120 nM
TGI (OVCAR-8 ovarian): 2490 nM
GI50 (NCI-H23 lung): 229 nM
TGI (NCI-H23 lung): 448 nM
GI50 (CAKI-1 renal): 657 nM
TGI (CAKI-1 renal): 2500 nM
GI50 (IGROV1 ovarian): 495 nM
TGI (IGROV1 ovarian): 2920 nM
GI50 (A549 NSCLC): 348 nM
TGI (A549 NSCLC): 1390 nM
GI50 (OVCAR-3 ovarian): 613 nM
TGI (OVCAR-3 ovarian): 2080 nM
GI50 (K-562 leukemia): 328 nM
TGI (K-562 leukemia): 1210 nM
GI50 (SR leukemia): 196 nM
TGI (SR leukemia): 369 nM
GI50 (BT-549 breast): 243 nM
TGI (BT-549 breast): 582 nM
GI50 (MCF7 breast): 309 nM
TGI (MCF7 breast): 1180 nM
GI50 (ACHN renal): 1840 nM
TGI (ACHN renal): 4.04 µM
GI50 (HL-60(TB) leukemia): 487 nM
TGI (HL-60(TB) leukemia): 1390 nM
GI50 (SK-MEL-28 melanoma): 606 nM
TGI (SK-MEL-28 melanoma): 2400 nM
GI50 (SF-295 CNS): 345 nM
TGI (SF-295 CNS): 1120 nM
GI50 (SK-MEL-5 melanoma): 378 nM
TGI (SK-MEL-5 melanoma): 1580 nM
GI50 (UACC-257 melanoma): 1610 nM
TGI (UACC-257 melanoma): 3.57 µM
GI50 (NCI-H226 lung): 1130 nM
TGI (NCI-H226 lung): 2600 nM
GI50 (HCC-2998 colon): 1380 nM
TGI (HCC-2998 colon): 3.2 µM
GI50 (SK-MEL-2 melanoma): 240 nM
TGI (SK-MEL-2 melanoma): 1030 nM
GI50 (CCRF-CEM leukemia): 243 nM
TGI (CCRF-CEM leukemia): 514 nM
GI50 (DU-145 prostate): 382 nM
TGI (DU-145 prostate): 1980 nM
GI50 (SN12C renal): 837 nM
TGI (SN12C renal): 2300 nM
GI50 (T-47D breast): 382 nM
TGI (T-47D breast): 1590 nM
GI50 (HOP-62 NSCLC): 666 nM
TGI (HOP-62 NSCLC): 2090 nM
GI50 (SF-268 CNS): 523 nM
TGI (SF-268 CNS): 1810 nM
GI50 (PC-3 prostate): 1370 nM
TGI (PC-3 prostate): 2750 nM
GI50 (NCI-H322M lung): 1760 nM
TGI (NCI-H322M lung): 8.77 µM
GI50 (HOP-92 NSCLC): 461 nM
TGI (HOP-92 NSCLC): 1560 nM
GI50 (HCT-15 colon): 545 nM
TGI (HCT-15 colon): 2880 nM
GI50 (RPMI-8226 leukemia): 238 nM
TGI (RPMI-8226 leukemia): 447 nM
